Experimental data published in PubChem BioAssay AID192 (DTP/NCI, 2004).
Values joined by “and” are separate entries in the source; they are usually repeats but may differ in a detail not shown here. Identical values can stand only once. Inconclusive results and toxic doses are left out.

System: BDF1 mice, B16 melanoma ip, median survival T/C
Test: NCI In Vivo Anticancer Drug Screen. Data for tumor model B16 Melanoma (intraperitoneal) in B6D2F1 (BDF1) mice
Conditions: endpoint: median survival time, higher = longer survival
Procedure, shortened: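 Survival or tumor size is measured after treatment of tumor-bearing mice and normalised to the vehicle-treated control group.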

[1] = dose: 25.0 mg/kg/injection, schedule: Q01DX009 (ip), vehicle: saline
[2] = dose: 50.0 mg/kg/injection, schedule: Q01DX009 (ip), vehicle: saline
[3] = dose: 100.0 mg/kg/injection, schedule: Q01DX009 (ip), vehicle: carboxymethylcellulose (CMC)
[4] = dose: 100.0 mg/kg/injection, schedule: Q01DX009 (ip), vehicle: saline
[5] = dose: 200.0 mg/kg/injection, schedule: Q01DX009 (ip), vehicle: carboxymethylcellulose (CMC)
[6] = dose: 200.0 mg/kg/injection, schedule: Q01DX009 (ip), vehicle: saline
[7] = dose: 400.0 mg/kg/injection, schedule: Q01DX009 (ip), vehicle: saline
[8] = dose: 100.0 mg/kg/injection, schedule: Q01DX009 (ip), vehicle: Klucel (hydroxypropylcellulose) (HPC)
[9] = dose: 25.0 mg/kg/injection, schedule: Q01DX009 (ip), vehicle: saline with Tween-80
[10] = dose: 50.0 mg/kg/injection, schedule: Q01DX009 (ip), vehicle: saline with Tween-80
[11] = dose: 100.0 mg/kg/injection, schedule: Q01DX009 (ip), vehicle: saline with Tween-80
[12] = dose: 200.0 mg/kg/injection, schedule: Q01DX009 (ip), vehicle: saline with Tween-80
[13] = dose: 12.5 mg/kg/injection, schedule: Q01DX009 (ip), vehicle: saline

NC(Cc1cc(I)c(O)c(I)c1)C(=O)O (configuration not stated)
T/C [1]: 106 % of control
T/C [2]: 112 % of control
T/C [3]: 108 % of control
T/C [4]: 116 % of control
T/C [5]: 115 % of control
T/C [6]: 110 % of control
T/C [7]: 100 % of control

O=C([O-])C[n+]1ccccc1
T/C [4]: 108 % of control
T/C [6]: 103 % of control

CC1=C(/C=C/C(C)=C/C=C/C(C)=C/C(=O)O)C(C)(C)CCC1
T/C (dose: 0.5 mg/kg/injection, schedule: Q01DX009 (ip), vehicle: saline with Tween-80): 98 % of control
T/C (dose: 1.0 mg/kg/injection, schedule: Q01DX009 (ip), vehicle: saline with Tween-80): 90 % of control
T/C (dose: 8.0 mg/kg/injection, schedule: Q01DX009 (ip), vehicle: saline with Tween-80): 92 % of control
T/C (dose: 16.0 mg/kg/injection, schedule: Q01DX009 (ip), vehicle: saline with Tween-80): 86 % of control and 88 % of control (2×)
T/C (dose: 32.0 mg/kg/injection, schedule: Q01DX009 (ip), vehicle: saline with Tween-80): 86 % of control and 94 % of control
T/C (dose: 64.0 mg/kg/injection, schedule: Q01DX009 (ip), vehicle: saline with Tween-80): 93 % of control

CCC1=C(c2cc(Cl)c3ccccc3c2OCC(=O)O)OC(CC)(C(=O)c2cc(Cl)c3ccccc3c2OCC(=O)O)CC1 (configuration not stated)
T/C (dose: 25.0 mg/kg/injection, schedule: Q01DX009 (ip), vehicle: Klucel (hydroxypropylcellulose) (HPC)): 102 % of control
T/C (dose: 30.0 mg/kg/injection, schedule: Q01DX009 (ip), vehicle: saline with Tween-80): 90 % of control
T/C (dose: 50.0 mg/kg/injection, schedule: Q01DX009 (ip), vehicle: Klucel (hydroxypropylcellulose) (HPC)): 102 % of control
T/C (dose: 60.0 mg/kg/injection, schedule: Q01DX009 (ip), vehicle: saline with Tween-80): 93 % of control
T/C [8]: 102 % of control
T/C (dose: 100.0 mg/kg/injection, schedule: Q04DX003 (ip), vehicle: saline with Tween-80): 110 % of control
T/C (dose: 120.0 mg/kg/injection, schedule: Q01DX009 (ip), vehicle: saline with Tween-80): 93 % of control
T/C (dose: 200.0 mg/kg/injection, schedule: Q04DX003 (ip), vehicle: saline with Tween-80): 95 % of control
T/C (dose: 240.0 mg/kg/injection, schedule: Q01DX009 (ip), vehicle: saline with Tween-80): 86 % of control

CC(c1ccccc1)N1C(=O)CSC1=S (configuration not stated)
T/C [9]: 100 % of control
T/C [10]: 94 % of control
T/C [11]: 103 % of control
T/C [12]: 101 % of control

COC(=O)[C@@H]1[C@H](O)[C@H](C)[C@H](O)[C@H](C)/C=C\C=C(C)C(=O)Nc2c(C)c(OC(C)=O)c3c(c2O)C(=O)C(C)=C2OCOC(=C23)C(C)=C[C@@](C)(O)[C@H](O)[C@@H](C)[C@H]1OC(C)=O
T/C [8]: 104 % of control
T/C [3]: 103 % of control
T/C (dose: 200.0 mg/kg/injection, schedule: Q01DX009 (ip), vehicle: Klucel (hydroxypropylcellulose) (HPC)): 94 % of control
T/C [5]: 123 % of control
T/C (dose: 400.0 mg/kg/injection, schedule: Q01DX009 (ip), vehicle: carboxymethylcellulose (CMC)): 97 % of control

O=C(CC(O)(C(F)(F)F)C(F)(F)F)CC(O)(C(F)(F)F)C(F)(F)F
T/C (dose: 1.25 mg/kg/injection, schedule: Q04DX003 (ip), vehicle: saline): 116 % of control
T/C (dose: 2.5 mg/kg/injection, schedule: Q04DX003 (ip), vehicle: saline): 122 % of control and 116 % of control

C#CCOCC1CO1 (configuration not stated)
T/C [10]: 97 % of control
T/C [11]: 91 % of control

COc1cc(-c2ccc(N=Nc3cc(S(=O)(=O)O)c4ccccc4c3O)c(OC)c2)ccc1N=Nc1cc(S(=O)(=O)O)c2ccccc2c1O
T/C [4]: 102 % of control
T/C [6]: 89 % of control
T/C [7]: 93 % of control

C=C(OC1C(C)=C2C(C1OC(=O)CCCCCCC)C(C)(OC(C)=O)CC(OC(=O)CCC)C1(O)C2OC(=O)C1(C)O)/C(C)=C/C (configuration not stated)
T/C (dose: 0.37 mg/kg/injection, schedule: Q01DX009 (ip), vehicle: Klucel (hydroxypropylcellulose) (HPC)): 97 % of control
T/C (dose: 1.5 mg/kg/injection, schedule: Q01DX009 (ip), vehicle: Klucel (hydroxypropylcellulose) (HPC)): 99 % of control
T/C (dose: 3.0 mg/kg/injection, schedule: Q01DX009 (ip), vehicle: Klucel (hydroxypropylcellulose) (HPC)): 115 % of control

CCCCCC(=O)c1ccc(OCCCN2CCN(C(=O)OCC)CC2)cc1
T/C [11]: 98 % of control
T/C [12]: 87 % of control

COc1cc2ccc(C(C)N)cc2cc1OC (configuration not stated)
T/C [4]: 97 % of control
T/C [6]: 95 % of control

CC1C=NNC1=O (configuration not stated)
T/C [9]: 90 % of control
T/C [10]: 90 % of control
T/C [11]: 95 % of control
T/C (dose: 100.0 mg/kg/injection, schedule: Q04DX003 (ip), vehicle: other): 105 % of control
T/C (dose: 125.0 mg/kg/injection, schedule: Q01DX009 (ip), vehicle: other): 105 % of control
T/C (dose: 125.0 mg/kg/injection, schedule: Q04DX003 (ip), vehicle: other): 100 % of control
T/C [12]: 90 % of control
T/C (dose: 200.0 mg/kg/injection, schedule: Q04DX003 (ip), vehicle: other): 95 % of control
T/C (dose: 250.0 mg/kg/injection, schedule: Q01DX009 (ip), vehicle: other): 100 % of control
T/C (dose: 250.0 mg/kg/injection, schedule: Q04DX003 (ip), vehicle: other): 100 % of control
T/C (dose: 266.0 mg/kg/injection, schedule: Q04DX003 (ip), vehicle: saline with Tween-80): 197 % of control
T/C (dose: 400.0 mg/kg/injection, schedule: Q01DX009 (ip), vehicle: saline with Tween-80): 116 % of control
T/C (dose: 400.0 mg/kg/injection, schedule: Q04DX003 (ip), vehicle: other): 92 % of control
T/C (dose: 400.0 mg/kg/injection, schedule: Q04DX003 (ip), vehicle: saline with Tween-80): 200 % of control
T/C (dose: 500.0 mg/kg/injection, schedule: Q01DX009 (ip), vehicle: other): 111 % of control
T/C (dose: 500.0 mg/kg/injection, schedule: Q04DX003 (ip), vehicle: other): 102 % of control
T/C (dose: 600.0 mg/kg/injection, schedule: Q04DX003 (ip), vehicle: saline with Tween-80): 183 % of control

CCCCCCCC(=O)N(C)OC
T/C (dose: 6.25 mg/kg/injection, schedule: Q04DX003 (ip), vehicle: Klucel (hydroxypropylcellulose) (HPC)): 107 % of control
T/C (dose: 12.5 mg/kg/injection, schedule: Q04DX003 (ip), vehicle: Klucel (hydroxypropylcellulose) (HPC)): 96 % of control
T/C (dose: 25.0 mg/kg/injection, schedule: Q04DX003 (ip), vehicle: Klucel (hydroxypropylcellulose) (HPC)): 112 % of control

CCOC(=O)Nc1ccc(OC)cc1
T/C (dose: 100.0 mg/kg/injection, schedule: Q04DX003 (ip), vehicle: Klucel (hydroxypropylcellulose) (HPC)): 95 % of control
T/C (dose: 200.0 mg/kg/injection, schedule: Q04DX003 (ip), vehicle: Klucel (hydroxypropylcellulose) (HPC)): 100 % of control
T/C (dose: 400.0 mg/kg/injection, schedule: Q04DX003 (ip), vehicle: Klucel (hydroxypropylcellulose) (HPC)): 97 % of control

COC(=O)C1CCC[N+](C)(C)C1 (configuration not stated)
T/C [13]: 100 % of control
T/C [1]: 100 % of control
T/C [2]: 91 % of control

O=C(CCCN1CCN(c2ccccc2)CC1)c1ccc(F)cc1
T/C [13]: 112 % of control
T/C [1]: 115 % of control
T/C [2]: 107 % of control
T/C [4]: 102 % of control
T/C [6]: 100 % of control

COc1nc(NC(C)C)nc(NC(C)C)n1
T/C [10]: 102 % of control
T/C (dose: 66.0 mg/kg/injection, schedule: Q01DX009 (ip), vehicle: saline with Tween-80): 93 % of control
T/C [11]: 86 % of control
T/C (dose: 150.0 mg/kg/injection, schedule: Q01DX009 (ip), vehicle: saline with Tween-80): 97 % of control
T/C [12]: 105 % of control

CCCCCCCCCCCCOCCOCCOCC(N)=O
T/C [4]: 112 % of control
T/C [6]: 109 % of control
T/C [7]: 90 % of control

Cc1cc(NCCN(C(C)C)C(C)C)nc(/N=C(\N)Nc2ccc(Cl)c(C(F)(F)F)c2)n1
T/C (dose: 2.5 mg/kg/injection, schedule: Q04DX003 (ip), vehicle: Klucel (hydroxypropylcellulose) (HPC)): 101 % of control
T/C (dose: 5.0 mg/kg/injection, schedule: Q01DX009 (ip), vehicle: Klucel (hydroxypropylcellulose) (HPC)): 92 % of control
T/C (dose: 5.0 mg/kg/injection, schedule: Q04DX003 (ip), vehicle: Klucel (hydroxypropylcellulose) (HPC)): 93 % of control
T/C (dose: 10.0 mg/kg/injection, schedule: Q01DX009 (ip), vehicle: Klucel (hydroxypropylcellulose) (HPC)): 91 % of control
T/C (dose: 10.0 mg/kg/injection, schedule: Q04DX003 (ip), vehicle: Klucel (hydroxypropylcellulose) (HPC)): 102 % of control
T/C (dose: 20.0 mg/kg/injection, schedule: Q04DX003 (ip), vehicle: Klucel (hydroxypropylcellulose) (HPC)): 111 % of control
